Measurements from patent publication US10010525B2, “Methods of inducing anesthesia” (The Regents of the University of California, priority 2012, dated 2018).
Read-outs that look alike come from different tables or passages of the source.

Key:
[1] = molecular target: T1, NMDA (NR1/NR2A) receptors (Rattus norvegicus, UniProt P35439+Q00959); test: NMDA receptor two-electrode voltage clamp in oocytes at saturated drug concentration; assay type: cell-based; settings: saturating aqueous concentration
T1 construct: expressed in transfected cells; host or cells: Xenopus laevis oocytes (RNA injection, 1:1)
Description: (§1) GABAA (α1β2γ2s) or NMDA (NR1/NR2A) receptors were expressed in oocytes and studied using standard two-electrode voltage clamp techniques. Hydrocarbons from 14 different organic functional groups were studied at saturated concentrations, and compounds within each group differed only by the carbon number at the ω-position or within a saturated ring. An effect on GABAA or NMDA receptors was defined as a 10% or greater reversible current change from baseline that was statistically different from zero.
(§2) An ovary from tricaine-anesthetized Xenopus laevis frogs was surgically removed using a protocol approved by the Institutional Animal Care and Use Committee at the University of California, Davis. Following manual disruption of the ovarian lobule septae, the ovary was incubated in 0.2% Type I collagenase (Worthington Biochemical, Lakewood, N.J.) to defolliculate oocytes which were washed and stored in fresh and filtered modified Barth's solution composed of 88 mM NaCl, 1 mM KCl, 2.4 mM NaHCO3, 20 mM HEPES, 0.82 mM MgSO4, 0.33 mM Ca(NO3)2, 0.41 mM CaCl2, 5 mM sodium pyruvate, gentamycin, penicillin, streptomycin, and corrected to pH=7.4. All salts and antibiotics were A.C.S. grade (Fisher Scientific, Pittsburgh, Pa.).
(§3) Clones used were provided as a gift from Dr. R. A. Harris (University of Texas, Austin) and were sequenced and compared to references in the National Center for Biotechnology Information database to confirm the identity of each gene. GABAA receptors were expressed using clones for the human GABAA α1 and the rat GABAA β2 and γ2s subunits in pCIS-II vectors. […] In separate oocytes, glutamate receptors were expressed using rat NMDA NR1 clones in a pCDNA3 vector and rat NMDA NR2A clones in a Bluescript vector. RNA encoding each subunit was prepared using a commercial transcription kit (T7 mMessage mMachine, Ambion, Austin, Tex.) was mixed in a 1:1 ratio, and 1-10 ng of total RNA was injected into oocytes and studied 1-2 days later.
Briefly, baseline perfusion solutions were the same as for GABAA with the substitution of equimolar BaCl2 for calcium salts and the addition of 0.1 mM EGTA; this constituted barium frog Ringer's solution (BaFR). Agonist solutions for NMDA studies also contained 0.1 mM glutamate (E) and 0.01 mM glycine (G) to constitute a BaFREG solution.
The syringe pump and perfusion chamber apparatus as well as the clamp holding potential and baseline-agonist exposure protocols were identical to that described for the GABAA studies. The same test compounds, concentrations, and preparative methods were used in NMDA voltage clamp studies as in the GABAA voltage clamp studies (Table 2).
(§4) Modulating drug responses were calculated as the percent of the control (baseline) peak as follows: 100·ID/IB, where ID and IB were the peak currents measured during agonist+drug and agonist baseline perfusions, respectively. When present, direct receptor activation by a drug was similarly calculated as a percent of the agonist response. […] A lack of receptor response (cut-off) was defined as a<10% change from baseline current that was statistically indistinguishable from zero using a two-tailed Student t-test.

[2] = molecular target: T2, GABAA (α1β2γ2s) receptors (UniProt P14867+P18508+P63138); test: GABAA receptor two-electrode voltage clamp in oocytes at saturated drug concentration; assay type: cell-based, human α1, rat β2 and γ2s; settings: saturating aqueous concentration
T2 construct: expressed in transfected cells; host or cells: Xenopus laevis oocytes (intranuclear plasmid injection, α1:β2:γ2 = 1:1:10)
Description: as §1, §2, §3
Oocytes were studied in a 250 μL linear-flow perfusion chamber with solutions administered by syringe pump at 1.5 ml/min with gastight glass syringes and Teflon tubing. Oocyte GABAA currents were studied using standard two-electrode voltage clamping techniques at a holding potential of […] using a 250 μL channel linear-flow perfusion chamber with solutions administered by syringe pump at 1.5 mL/min.
After FR perfusion for 5 min, oocytes were exposed to 30 sec FR-GABA followed by another 5 min FR washout; this was repeated until stable GABAA-elicited peaks were obtained. Next, FR containing a saturated solution of the study drug (Table 2)—or for gaseous study compounds a vapor pressure equal to 90% of barometric pressure with balance oxygen—was used to perfuse the oocyte chamber for 2 min followed by perfusion with a FR-GABA solution containing the identical drug concentration for 30 sec.
as §4

[3] = Loss of righting reflex in Sprague-Dawley rats (inhaled agent); assay type: in vivo
Method: 1,1,2,2,3,3,4,5-octafluorocyclopentane (CAS#828-35-3) caused a loss of righting reflex in 4 healthy Sprague-Dawley rats at a concentration of 3.3±0.4 (mean±SD) percent of 1 atmosphere. […] After discontinuing the agent, rats were awake and ambulatory in less than 1 minute. […] Despite a lack of NMDA receptor effects, 1,1,2,2,3,3,4,5-octafluorocyclopentane is able to produce the desired pharmacologic endpoints of unconsciousness and immobility that appears similar to desirable effects produced by conventional agents.

glycine receptors = test: Glycine receptor modulation in vitro; assay type: cell-based
[4] = system: inhibitory potassium channels; test: Inhibitory potassium channel modulation in vitro; assay type: cell-based; settings: some inhibitory potassium channels
[5] = Loss of righting reflex in mice (inhaled agent); assay type: in vivo
Method: (§5) HFCP caused loss of righting reflex (a surrogate measure of unconsciousness) in 4 healthy ND4 mice at 1.0±0.2 (mean±SD) percent of 1 atmosphere. […] After 2 hours of anesthesia, mice were awake after about 1 minute of discontinuing HFCP administration. […] Despite a lack of NMDA receptor effects, 1,1,2,2,3,3,4-heptafluorocyclopentane is able to produce the desired pharmacologic endpoints of unconsciousness and immobility that appears similar to desirable effects produced by conventional agents.

[6] = aqueous phase; Tadpole; cited from earlier work
[7] = system: 3-transmembrane (TM3) and 4-transmembrane (TM4) receptors; settings: grouped by calculated molar solubility in unbuffered water at 25° C.; cited from earlier work
[8] = Histopathology of heart, lung, kidney and liver tissues after anesthesia; assay type: in vivo, ND4 mice; settings: collected 2 days later
Method: as §5

Stability in soda lime = assay type: physicochemical
Description: Divalent bases (and sometimes monovalent bases) are used for CO2 absorption in anesthetic circuits; clinically-useful agents must therefore be stable in the presence of strong bases. […] Anesthetics should also be resistant to hydrolysis and redox reactions in vivo. Compounds with ester linkages can be thermally unstable or hydrolysed by plasma and tissue cholinesterases; and those compounds resistant to hydrolysis may likely cause undesirable inhibition of these enzymes (which are essential for metabolism of other drugs). Therefore, compounds with ester linkages are not preferred. Anesthetics with non-aromatic unsaturated carbon linkages have been used historically (fluroxene, isopropenyl vinyl ether, trichloroethylene, vinethylene, ethylene) and shown to undergo extensive metabolism that for some agents was associated with toxicity. Agents containing double or triple carbon bonds are not preferred.

[9] = aqueous phase; Human; cited from earlier work
GABAA receptor = settings: 365 μM ketamine; cited from earlier work
[10] = read-out: Aqueous EC50; aqueous phase; Rat; cited from earlier work
NMDA receptor = settings: read-out: IC50, inhibition of NMDA receptor currents; cited from earlier work
oocyte = test: Cytotoxicity during oocyte electrophysiology studies; assay type: cell-based, Xenopus laevis
Description: These compounds are not preferred. Other structures previously known to be highly toxic to animals or humans (such as silanes and boranes) are not preferred.

T1 sequence (Q00959 23-1464, other chains not shown): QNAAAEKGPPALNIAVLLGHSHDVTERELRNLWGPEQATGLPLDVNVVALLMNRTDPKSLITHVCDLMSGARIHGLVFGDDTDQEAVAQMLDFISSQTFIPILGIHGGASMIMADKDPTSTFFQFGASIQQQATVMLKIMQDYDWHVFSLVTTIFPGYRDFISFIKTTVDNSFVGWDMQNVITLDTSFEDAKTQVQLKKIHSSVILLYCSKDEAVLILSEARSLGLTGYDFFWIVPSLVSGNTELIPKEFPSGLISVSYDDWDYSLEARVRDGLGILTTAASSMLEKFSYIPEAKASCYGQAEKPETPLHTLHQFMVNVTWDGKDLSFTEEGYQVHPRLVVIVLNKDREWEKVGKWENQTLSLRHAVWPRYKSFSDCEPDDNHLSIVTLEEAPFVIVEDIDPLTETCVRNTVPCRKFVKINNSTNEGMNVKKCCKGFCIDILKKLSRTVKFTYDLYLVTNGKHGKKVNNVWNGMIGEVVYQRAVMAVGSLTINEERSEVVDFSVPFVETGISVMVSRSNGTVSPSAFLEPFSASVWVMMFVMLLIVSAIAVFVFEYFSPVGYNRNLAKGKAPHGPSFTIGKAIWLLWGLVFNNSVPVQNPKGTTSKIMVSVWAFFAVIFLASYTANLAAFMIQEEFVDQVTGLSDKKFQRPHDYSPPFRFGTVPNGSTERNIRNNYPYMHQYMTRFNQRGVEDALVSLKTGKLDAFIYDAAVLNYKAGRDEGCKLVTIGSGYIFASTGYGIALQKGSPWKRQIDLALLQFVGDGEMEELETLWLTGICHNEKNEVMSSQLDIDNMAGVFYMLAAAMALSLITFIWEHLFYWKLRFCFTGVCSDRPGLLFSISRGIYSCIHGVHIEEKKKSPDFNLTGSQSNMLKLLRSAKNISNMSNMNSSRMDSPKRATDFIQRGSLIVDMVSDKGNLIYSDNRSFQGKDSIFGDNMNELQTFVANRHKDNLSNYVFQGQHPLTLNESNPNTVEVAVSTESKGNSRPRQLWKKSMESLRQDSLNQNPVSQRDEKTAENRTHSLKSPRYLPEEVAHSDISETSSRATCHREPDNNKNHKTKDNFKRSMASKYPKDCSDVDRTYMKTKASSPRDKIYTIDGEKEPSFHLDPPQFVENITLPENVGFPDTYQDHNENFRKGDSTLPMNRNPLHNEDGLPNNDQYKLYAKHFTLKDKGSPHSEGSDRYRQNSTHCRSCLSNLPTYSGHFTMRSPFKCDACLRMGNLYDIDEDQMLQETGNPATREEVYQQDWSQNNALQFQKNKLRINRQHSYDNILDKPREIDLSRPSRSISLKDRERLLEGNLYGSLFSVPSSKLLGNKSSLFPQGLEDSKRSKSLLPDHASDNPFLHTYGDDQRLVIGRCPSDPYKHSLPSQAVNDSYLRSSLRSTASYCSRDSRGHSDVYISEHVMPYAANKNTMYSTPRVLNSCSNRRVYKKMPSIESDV
T2 sequence (P14867 28-456): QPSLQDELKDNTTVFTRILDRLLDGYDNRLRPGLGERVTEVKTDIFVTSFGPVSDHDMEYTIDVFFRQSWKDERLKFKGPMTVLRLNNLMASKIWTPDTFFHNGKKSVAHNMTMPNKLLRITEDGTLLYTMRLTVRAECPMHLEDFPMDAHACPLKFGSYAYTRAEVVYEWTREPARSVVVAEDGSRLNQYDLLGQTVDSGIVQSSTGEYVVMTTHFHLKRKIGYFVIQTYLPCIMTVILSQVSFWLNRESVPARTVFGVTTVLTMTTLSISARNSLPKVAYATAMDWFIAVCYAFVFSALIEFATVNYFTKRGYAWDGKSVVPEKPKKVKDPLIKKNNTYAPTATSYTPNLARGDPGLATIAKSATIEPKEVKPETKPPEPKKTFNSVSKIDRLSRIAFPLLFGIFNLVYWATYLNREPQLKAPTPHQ
T2 sequence (P63138 25-474 limits assumed): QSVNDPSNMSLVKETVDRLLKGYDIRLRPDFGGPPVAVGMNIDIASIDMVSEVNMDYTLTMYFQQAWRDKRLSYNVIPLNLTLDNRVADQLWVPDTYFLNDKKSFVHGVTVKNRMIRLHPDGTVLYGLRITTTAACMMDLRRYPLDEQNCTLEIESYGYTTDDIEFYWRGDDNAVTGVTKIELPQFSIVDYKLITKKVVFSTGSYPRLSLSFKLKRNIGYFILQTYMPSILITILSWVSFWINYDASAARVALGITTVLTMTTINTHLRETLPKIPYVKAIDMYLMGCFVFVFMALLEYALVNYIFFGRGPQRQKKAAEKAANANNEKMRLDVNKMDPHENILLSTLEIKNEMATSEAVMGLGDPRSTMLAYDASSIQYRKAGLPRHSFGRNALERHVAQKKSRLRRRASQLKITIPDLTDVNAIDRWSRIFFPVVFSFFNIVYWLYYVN
T2 sequence (P18508 39-466): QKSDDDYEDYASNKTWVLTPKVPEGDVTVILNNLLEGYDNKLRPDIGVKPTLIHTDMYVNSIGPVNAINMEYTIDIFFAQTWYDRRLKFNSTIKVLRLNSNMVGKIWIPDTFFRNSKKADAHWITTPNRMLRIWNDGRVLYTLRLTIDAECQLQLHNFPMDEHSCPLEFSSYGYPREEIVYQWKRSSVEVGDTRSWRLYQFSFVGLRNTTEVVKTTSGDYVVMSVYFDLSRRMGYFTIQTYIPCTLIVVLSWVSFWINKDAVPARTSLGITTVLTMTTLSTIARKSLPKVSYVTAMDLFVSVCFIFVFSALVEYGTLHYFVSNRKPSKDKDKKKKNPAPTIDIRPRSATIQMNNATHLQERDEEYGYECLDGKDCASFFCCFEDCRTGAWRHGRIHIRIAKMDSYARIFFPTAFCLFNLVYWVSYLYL

With FC1C(F)C(F)(F)C(F)(F)C1(F)F (stereo not shown) [1,1,2,2,3,3,4,5-octafluorocyclopentane] the “NMDA receptor modulation (in words)” value [1] was “no effect”, the “GABAA receptor modulation (in words)” value [2] was “potentiates” and the “concentration causing loss of righting reflex” value (from here on “concentration causing loss”) ([3]; 4 healthy Sprague-Dawley rats, mean±SD, inhaled) was 3.3±0.4% of 1 atmosphere. For the same compound, the “excitement or coughing during anesthetic induction” value ([3]; rats) was “without excitement or coughing”, the “time to awake and ambulatory after discontinuing the agent” value ([3]; rats) was “less than 1 minute” and the “glycine receptor modulation (in words)” value (glycine receptors) was “potentiates”. The “inhibitory potassium channel modulation (in words)” value [4] was “potentiates”.
In the case of FC1C(F)(F)C(F)(F)OC1(F)C(F)(F)F (stereo not shown) [2,2,3,3,4,5-hexafluorotetrahydro-5-(trifluoromethyl)-furan], the “concentration causing loss” value ([5]; mice) is reported as 1-10%.
For ClC(Cl)Cl [Chloroform], the EC50 [6] is given as 1300 µM.
In the case of Cc1cccc([C@H](C)c2cnc[nH]2)c1C [Dexmedetomidine], the EC50 [6] is listed as 7 µM.
In the case of CCOCC [Diethyl ether], the EC50 [6] is given as 25000 µM and the “ion channel modulation, TM3 versus TM4 receptors (FIG. 2)” value [7] is given as “modulate both 3-transmembrane (TM3) and TM4 receptors”.
In the case of CCOC(=O)c1cncn1[C@H](C)c1ccccc1 [Etomidate], the EC50 [6] is given as 3 µM and the “ion channel modulation, TM3 versus TM4 receptors (FIG. 2)” value [7] is given as “modulate 4-transmembrane receptors (TM4) or neither receptor type”.
In the case of FC1CC(F)(F)C(F)(F)C1(F)F (stereo not shown) [HFCP, 1,1,2,2,3,3,4-heptafluorocyclopentane], the “NMDA receptor modulation (in words)” value [1] is reported as “no effect”, the “GABAA receptor modulation (in words)” value [2] is reported as “potentiates” and the “concentration causing loss” value ([5]; 4 healthy ND4 mice, mean±SD, inhaled) is reported as 1.0±0.2% of 1 atmosphere. For the same compound, the “excitement or coughing during anesthetic induction” value ([5]; mice) was “no excitement or coughing”, the “time to awake after discontinuing administration” value ([5]; mice, after 2 hours of anesthesia) was “about 1 minute” and the “histopathology of heart, lung, kidney and liver tissues” value [8] was “no evidence of inflammation or toxicity”. The “glycine receptor modulation (in words)” value (glycine receptors) was “potentiates”, the “inhibitory potassium channel modulation (in words)” value [4] was “potentiates” and the “stability in soda lime” value (Stability in soda lime) was “stable in soda lime”.
In the case of FC(F)(F)C(Cl)Br (stereo not shown) [Halothane], the EC50 [6] is listed as 230 µM and the “ion channel modulation, TM3 versus TM4 receptors (FIG. 2)” value [7] is listed as “modulate both 3-transmembrane (TM3) and TM4 receptors”.
For FC(F)OC(Cl)C(F)(F)F (stereo not shown) [Isoflurane], the EC50 [6] is listed as 290 µM and the “ion channel modulation, TM3 versus TM4 receptors (FIG. 2)” value [7] is listed as “modulate both 3-transmembrane (TM3) and TM4 receptors”.
In the case of CNC1(c2ccccc2Cl)CCCCC1=O (stereo not shown) [Ketamine], the EC50 [9] is listed as 2 µM, the “increase of GABAA receptor currents” value (GABAA receptor) is listed as 56% and the “ion channel modulation, TM3 versus TM4 receptors (FIG. 2)” value [7] is listed as “modulate both 3-transmembrane (TM3) and TM4 receptors”.
For COC(F)(F)C(Cl)Cl [Methoxyflurane], the EC50 [6] is given as 210 µM and the “ion channel modulation, TM3 versus TM4 receptors (FIG. 2)” value [7] is given as “modulate both 3-transmembrane (TM3) and TM4 receptors”.
For FC1(F)OC(F)(F)C(F)(F)C(F)(F)C1(F)F [Perfluorotetrahydropyran], the “concentration causing loss” value ([5]; mice) was 1-10%.
In the case of CC(C)c1cccc(C(C)C)c1O [Propofol], the “ion channel modulation, TM3 versus TM4 receptors (FIG. 2)” value [7] is listed as “modulate both 3-transmembrane (TM3) and TM4 receptors”, the EC50 [10] is listed as 2 µM and the IC50 (NMDA receptor) is listed as 160 µM.
In the case of CCCC(C)C1(CC)C(=O)NC(=S)NC1=O (stereo not shown) [Thiopental], the EC50 [9] is given as 25 µM.
In the case of C[C@]12N[C@H](Cc3ccccc31)c1ccccc12 [dizocilpine], the “ion channel modulation, TM3 versus TM4 receptors (FIG. 2)” value [7] is listed as “modulate both 3-transmembrane (TM3) and TM4 receptors”.
For FC(F)OC(F)(F)C(F)Cl (stereo not shown) [enflurane], the “ion channel modulation, TM3 versus TM4 receptors (FIG. 2)” value [7] is given as “modulate both 3-transmembrane (TM3) and TM4 receptors”.
For CCO [ethanol], the “ion channel modulation, TM3 versus TM4 receptors (FIG. 2)” value [7] is given as “modulate both 3-transmembrane (TM3) and TM4 receptors”.
In the case of Cc1ncc2n1-c1ccc(Cl)cc1C(c1ccccc1F)=NC2 [midazolam], the “ion channel modulation, TM3 versus TM4 receptors (FIG. 2)” value [7] is listed as “modulate 4-transmembrane receptors (TM4) or neither receptor type”.
In the case of [N-]=[N+]=O [nitrous oxide], the “ion channel modulation, TM3 versus TM4 receptors (FIG. 2)” value [7] is given as “modulate both 3-transmembrane (TM3) and TM4 receptors”.
For CCCCCCCCC [nonane], the “ion channel modulation, TM3 versus TM4 receptors (FIG. 2)” value [7] is listed as “modulate 4-transmembrane receptors (TM4) or neither receptor type”.
With C1CCNC1 [pyrrolidine] the “cytotoxicity during oocyte electrophysiology studies” value (oocyte) was “cytotoxicity”.
In the case of FCOC(C(F)(F)F)C(F)(F)F [sevoflurane], the “ion channel modulation, TM3 versus TM4 receptors (FIG. 2)” value [7] is listed as “modulate both 3-transmembrane (TM3) and TM4 receptors”.
In the case of CCCCCCCCCCCO [undecanol], the “ion channel modulation, TM3 versus TM4 receptors (FIG. 2)” value [7] is listed as “modulate 4-transmembrane receptors (TM4) or neither receptor type”.
